Reference: patent US9393232B2 (BeiGene, Ltd., priority 2013, dated 2016)

Biological target: Recombinant human BRD4(1-477) (Homo sapiens (Human), UniProt O60885)
Assay: BRD4 TR-FRET biochemical IC50 assay
Type: binding
Details: TR-FRET, tetra-acetylated histone peptide; read-out: BRD4 IC50

Compound	IC50 [µM]
CCC1(O)C(=O)Nc2ccc(-c3c(C)noc3C)cc21 (stereo not drawn) [Compound 1.20, 5-(3,5-dimethylisoxazol-4-yl)-3-ethyl-3-hydroxyindolin-2-one]	2.3
Cc1noc(C)c1-c1ccc2c(c1)C(N)(C1CCCCC1)C(=O)N2 (single isomer, unassigned) [Compound 2.37b, 3-Amino-3-cyclohexyl-5-(3,5-dimethylisoxazol-4-yl)indolin-2-one]	1.1
CCOC(=O)CN1CCN(C2(c3ccccc3)C(=O)Nc3ccc(-c4c(C)noc4C)cc32)CC1 (stereo not drawn) [Compound 2.47, Ethyl 2-(4-(5-(3,5-dimethylisoxazol-4-yl)-2-oxo-3-phenylindolin-3-yl)piperazin-1-yl)acetate]	0.054
Cc1noc(C)c1-c1ccc2c(c1)C(c1ccsc1)C(=O)N2 (stereo not drawn) [Compound 4.11, 5-(3,5-Dimethylisoxazol-4-yl)-3-(thiophen-3-yl)indolin-2-one]	0.12
Cc1noc(C)c1-c1ccc2c(c1)C(c1ccccc1)(N1C[C@@H](O)C[C@H]1CO)C(=O)N2 (single isomer, unassigned) [Compound 2.51a]	1.4
Cc1noc(C)c1-c1ccc2c(c1)C(O)(C1CCCCC1=O)C(=O)N2 (single isomer, unassigned) [Compound 1.30b, 5-(3,5-Dimethylisoxazol-4-yl)-3-hydroxy-3-(2-oxocyclohexyl)indolin-2-one]	0.65
Cc1noc(C)c1-c1ccc2c(c1)C(NC[C@H](C)O)(c1ccccc1)C(=O)N2 (single isomer, unassigned) [Compound 2.14b]	0.61
Cc1noc(C)c1-c1ccc2c(c1)C(C1CCCCC1)(N1CCC[C@@H](O)C1)C(=O)N2 (stereo partly drawn) [Compound 2.30, 3-cyclohexyl-5-(3,5-dimethylisoxazol-4-yl)-3-((R)-3-hydroxypiperidin-1-yl)indolin-2-one]	0.061
C=C(C)CC1(O)C(=O)Nc2ccc(-c3c(C)noc3C)cc21 (stereo not drawn) [Compound 1.28, 5-(3,5-dimethylisoxazol-4-yl)-3-hydroxy-2-(2-methylallyl)indolin-2-one]	3.9
COc1ccc(C2(O)C(=O)Nc3ccc(-c4c(C)noc4C)cc32)cc1OC (stereo not drawn) [Compound 1.10, 3-(3,4-dimethoxyphenyl)-5-(3,5-dimethylisoxazol-4-yl)-3-hydroxyindolin-2-one]	1.3
CC(=O)OC1(c2ccccc2)C(=O)Nc2ccc(-c3c(C)noc3C)cc21 (stereo not drawn) [Compound 1.34, 5-(3,5-Dimethylisoxazol-4-yl)-2-oxo-3-phenylindolin-3-yl acetate]	0.15
Cc1noc(C)c1-c1ccc2c(c1)C(N[C@@H](CO)C(C)C)(c1ccccc1)C(=O)N2 (single isomer, unassigned) [Compound 2.11a]	3.6
Cc1noc(C)c1-c1ccc2c(c1)C(N[C@H](CO)C(C)C)(C1CCCCC1)C(=O)N2 (single isomer, unassigned) [Compound 2.19a]	> 10
Cc1noc(C)c1-c1ccc2c(c1)C(NC[C@@H](C)O)(c1ccccc1)C(=O)N2 (single isomer, unassigned) [Compound 2.13a]	0.71
COC(=O)[C@@H]1C[C@@H](O)CN1C1(c2ccccc2)C(=O)Nc2ccc(-c3c(C)noc3C)cc21 (single isomer, unassigned) [Compound 2.50b]	0.85
Cc1noc(C)c1-c1ccc2c(c1)C(O)(C(C)C)C(=O)N2 (stereo not drawn) [Compound 1.27, 5-(3,5-dimethylisoxazol-4-yl)-3-hydroxy-3-isopropylindolin-2-one]	2.8
Cc1noc(C)c1-c1ccc2c(c1)C(c1ccccc1)(N1CCC[C@@H](NC(=O)OC(C)(C)C)C1)C(=O)N2 (stereo partly drawn) [Compound 2.43]	0.51
Cc1noc(C)c1-c1ccc2c(c1)C(c1ccccc1)(N1CC[C@@H](N)C1)C(=O)N2 (stereo partly drawn) [Compound 2.42, 3-((R)-3-aminopyrrolidin-1-yl)-5-(3,5-dimethylisoxazol-4-yl)-3-phenylindolin-2-one]	0.027
Cc1noc(C)c1-c1ccc2c(c1)C(c1ccccc1)(N1CCC[C@H]1CO)C(=O)N2 (stereo partly drawn) [Compound 2.53, 5-(3,5-Dimethylisoxazol-4-yl)-3-((s)-2-(hydroxymethyl)pyrrolidin-1-yl)-3-phenylindolin-2-one]	0.09
Cc1noc(C)c1-c1ccc2c(c1)C(N[C@@H](CO)C(C)C)(C1CCCCC1)C(=O)N2 (single isomer, unassigned) [Compound 2.20a]	5.1
CC(=O)CC1(O)C(=O)Nc2ccc(-c3c(C)noc3C)cc21 (stereo not drawn) [Compound 4.2, 5-(3,5-dimethylisoxazol-4-yl)-3-hydroxy-3-(2-oxopropyl)indolin-2-one]	0.67
Cc1noc(C)c1-c1ccc2c(c1)C(O)(CCCc1ccccc1)C(=O)N2 (stereo not drawn) [Compound 1.29, 5-(3,5-dimethylisoxazol-4-yl)-3-hydroxy-3-(3-phenylpropyl)indolin-2-one]	1.6
Cc1noc(C)c1-c1ccc2c(c1)C(NCCC(C)C)(C1CCCCC1)C(=O)N2 (stereo not drawn) [Compound 2.25, 3-cyclohexyl-5-(3,5-dimethylisoxazol-4-yl)-3-(isopentylamino)indolin-2-one]	3.7

Compound	IC50 [µM]
Cc1noc(C)c1-c1ccc2c(c1)C(CC(=O)O)(c1ccccc1)C(=O)N2 (stereo not drawn) [Compound 3.4, 2-(5-(3,5-dimethylisoxazol-4-yl)-2-oxo-3-phenylindolin-3-yl)acetic acid]	6.1
Cc1noc(C)c1-c1ccc2c(c1)C(C1CCCCC1)(N1CCCC(O)C1)C(=O)N2 (stereo not drawn) [Compound 2.32, 3-cyclohexyl-5-(3,5-dimethylisoxazol-4-yl)-3-(3-hydroxypiperidin-1-yl)indolin-2-one]	0.06
Cc1noc(C)c1-c1ccc2c(c1)C(c1ccccc1)(N1CCN(CCO)CC1)C(=O)N2 (stereo not drawn) [Compound 2.48, 5-(3,5-Dimethylisoxazol-4-yl)-3-(4-(2-hydroxyethyl)piperazin-1-yl)-3-phenylindolin-2-one]	0.08
Cc1noc(C)c1-c1ccc2c(c1)C(C1CCCCC1)(N1CC(O)C1)C(=O)N2 (stereo not drawn) [Compound 2.33, 3-cyclohexyl-5-(3,5-dimethylisoxazol-4-yl)-3-(3-hydroxyazetidin-1-yl)indolin-2-one]	0.12
Cc1noc(C)c1-c1ccc2c(c1)C(c1ccccc1)(N1C[C@@H](O)C[C@H]1CO)C(=O)N2 (single isomer, unassigned) [Compound 2.51b]	0.067
Cc1noc(C)c1-c1ccc2c(c1)C(C1CCCCC1)(N1CCC(O)CC1)C(=O)N2 (stereo not drawn) [Compound 2.31, 3-cyclohexyl-5-(3,5-dimethylisoxazol-4-yl)-3-(4-hydroxypiperidin-1-yl)indolin-2-one]	0.037
Cc1noc(C)c1-c1ccc2c(c1)C(N[C@H](CO)Cc1cnc[nH]1)(c1ccccc1)C(=O)N2 (single isomer, unassigned) [Compound 2.57a, 5-(3,5-Dimethylisoxazol-4-yl)-3-((s)-1-hydroxy-3-(1h-imidazol-5-yl)propan-2-ylamino)-3-phenylindolin-2-one]	0.41
Cc1noc(C)c1-c1ccc2c(c1)C(O)(c1cccc3ccccc13)C(=O)N2 (stereo not drawn) [Compound 1.11, 5-(3,5-dimethylisoxazol-4-yl)-3-hydroxy-3-(naphthalen-1-yl)indolin-2-one]	2.5
Cc1noc(C)c1-c1ccc2c(c1)C(c1ccccc1)(N1CCC[C@@H](N)C1)C(=O)N2 (stereo partly drawn) [Compound 2.45, 3-((R)-3-aminopiperidin-1-yl)-5-(3,5-dimethylisoxazol-4-yl)-3-phenylindolin-2-one]	0.026
Cc1noc(C)c1-c1ccc2c(c1)C(NCCO)(c1ccsc1)C(=O)N2 (stereo not drawn) [Compound 4.3, 5-(3,5-Dimethylisoxazol-4-yl)-3-(2-hydroxyethylamino)-3-(thiophen-3-yl)indolin-2-one]	0.049
Cc1noc(C)c1-c1ccc2c(c1)C(N[C@H](CO)C(C)C)(c1ccccc1)C(=O)N2 (single isomer, unassigned) [Compound 2.12b]	3.4
COc1cc(-c2c(C)noc2C)cc2c1NC(=O)C2(O)c1ccccc1 (stereo not drawn) [Compound 5.1, 5-(3,5-Dimethylisoxazol-4-yl)-3-hydroxy-7-methoxy-3-phenylindolin-2-one]	0.45
Cc1noc(C)c1-c1ccc2c(c1)C(c1ccsc1)(N1CCC(O)CC1)C(=O)N2 (stereo not drawn) [Compound 4.5, 5-(3,5-DIMETHYLISOXAZOL-4-YL)-3-(4-HYDROXYPIPERIDIN-1-YL)-3-(THIOPHEN-3-YL)INDOLIN-2-ONE]	0.025
Cc1noc(C)c1-c1ccc2c(c1)C(N[C@@H](CO)c1ccccc1)(c1ccccc1)C(=O)N2 (single isomer, unassigned) [Compound 2.7a]	> 10
Cc1noc(C)c1-c1ccc2c(c1)C(N[C@H](CO)c1ccccc1)(c1ccccc1)C(=O)N2 (single isomer, unassigned) [Compound 2.8a]	0.51
Cc1noc(C)c1-c1ccc2c(c1)C(N[C@H](CO)Cc1cnc[nH]1)(c1ccccc1)C(=O)N2 (single isomer, unassigned) [Compound 2.57b, 5-(3,5-Dimethylisoxazol-4-yl)-3-((s)-1-hydroxy-3-(1h-imidazol-5-yl)propan-2-ylamino)-3-phenylindolin-2-one]	0.041
C#CC1(O)C(=O)Nc2ccc(-c3c(C)noc3C)cc21 (stereo not drawn) [Compound 1.21, 5-(3,5-dimethylisoxazol-4-yl)-3-ethynyl-3-hydroxyindolin-2-one]	1.2
Cc1noc(C)c1-c1ccc2c(c1)C(N[C@H](CO)c1ccccc1)(c1ccccc1)C(=O)N2 (single isomer, unassigned) [Compound 2.8b]	2.2
Cc1noc(C)c1-c1ccc2c(c1)C(N)(c1ccsc1)C(=O)N2 (stereo not drawn) [Compound 4.4, 3-AMINO-5-(3,5-DIMETHYLISOXAZOL-4-YL)-3-(THIOPHEN-3-YL)INDOLIN-2-ONE]	0.4
Cc1noc(C)c1-c1ccc2c(c1)C(N[C@@H](CO)c1ccccc1)(c1ccccc1)C(=O)N2 (single isomer, unassigned) [Compound 2.7b]	0.81
Cc1noc(C)c1-c1ccc2c(c1)C(N)(C1CCCCC1)C(=O)N2 (stereo not drawn) [Compound 2.37, 3-amino-3-cyclohexyl-5-(3,5-dimethylisoxazol-4-yl)indolin-2-one]	0.093
Cc1noc(C)c1-c1ccc2c(c1)C(c1ccccc1)(N1CCC[C@H](NC(=O)OC(C)(C)C)C1)C(=O)N2 (stereo partly drawn) [Compound 2.44, Tert-butyl (3s)-1-(5-(3,5-dimethylisoxazol-4-yl)-2-oxo-3-phenylindolin-3-yl)piperidin-3-ylcarbamate]	1.1
